Data reported in patent publication US20260092086A1, “ANTIMICROBIAL LASSO PEPTIDES” (priority 2022, published 2026).
Converted amounts (≈) assume the structure as drawn. “Also recorded” adds a separate entry of the source. Like-named read-outs stand apart in the source and are kept apart here. Where a SMILES comes first, the peptide text is derived from it.

Tests used:
B. subtilis 168 = assay: Spot-on-lawn assay in M63 agar; type: cell-based, Bacillus subtilis; details: purified cloacaenodin in water
Procedure: (§1) Cloacaenodin was evaluated against several common laboratory strains as well as commercially acquired strains using a spot-on-lawn assay.^45 Strains were streaked out onto LB agar plates and incubated overnight at their recommended temperatures. A single colony was then used to inoculate an overnight culture in 5 mL of LB broth. After shaking at 250 rpm at the recommended temperature for each strain, 50 μL of the overnight culture was used to inoculate 5 mL of LB broth (volume ratio 1:100). These cultures were grown for a few hours until they reached the exponential phase (OD600˜0.4-0.6) before being added to 10 mL of soft M63 agar at a final cell density of 10^7 CFUs/mL, or 10^8 CFUs total in 10 mL. The M63 soft agar was composed of 2 g/L of (NH4)2SO4 (EMD MilliporeSigma), 13.6 g/L of KH2PO4 (Fisher), 40 mg/L of each of the 20 common amino acids, 0.2% glucose (Sigma), 0.00005% w/v thiamine hydrochloride (Sigma), and 0.65% w/v bacteriological-grade agar (Apex Bioresearch). […] Upon solidification, 10 μL of purified cloacaenodin in water at two-fold dilutions were then spotted onto the agar and allowed to dry. The plates were incubated overnight at the strains' recommended temperatures and analyzed the next morning for activity. The MIC is defined as the last dilution where a spot was visible.

[1] = test system: Enterobacter ludwigii MGH216; assay: Spot-on-lawn assay in M63 agar, clinical isolate; type: cell-based; details: reliably susceptible in at least three biological replicates
Procedure: as §1, with “visible. […]” for “visible.”

[2] = test system: Enterobacter asburiae MGH243; type: cell-based
Procedure: as §1
(§2) Twelve (12) clinical isolates were tested at the Broad Institute of MIT and Harvard, with a subset of strains from BioProject PRJNA292902, BioProject PRJNA271899, BioProject PRJNA201976, and BioProject 219285. The strains were tested following the same spot-on-lawn assay protocol described above, but with BD Bacto Agar used instead. All cloacaenodin-treated isolates were incubated at 37° C. overnight, and the assay was repeated at least three times (on biological replicates) for each of the twelve (12) strains. We defined a strain to be susceptible if it was reliably susceptible in at least three biological replicates.

[3] = test system: Enterobacter asburiae UCI193; type: cell-based
Procedure: as §1, §2

[4] = test system: Enterobacter cloacae UCI102; type: cell-based
Procedure: as §1, §2

[5] = test system: Enterobacter hormaechei UCI35; type: cell-based
Procedure: as §1, §2

[6] = test system: Enterobacter kobei MGH178; type: cell-based
Procedure: as §1, §2

Enterobacter strains = assay: Spot-on-lawn assay, CDC & FDA Antibiotic Resistance Isolate Bank panels; type: cell-based; details: three of the four Enterobacter strains of the CRE/BIT panels, M63 agar
Description: (§3) FIG. 42. Spot-on-lawn assays of tested clinical isolates treated with cloacaenodin in M63 agar. From the initial concentration shown to the left of the curved arrow and in the direction of the curved arrow, two-fold serial dilutions of cloacaenodin were spotted. The straight arrows point to the last visible spot on the plate which corresponds to the recorded minimal inhibitory concentration (MIC). Spot 8 is pure water in all plates. AR Bank #0132, AR Bank #0136, AR Bank #0144, and AR Bank #0154 are from the CRE panel. AR Bank #0001 and AR Bank #0002 are from the BIT panel.
(§4) Two panels from the CDC & FDA Antibiotic Resistance Isolate Bank were used: the Enterobacterales Carbapenemase Diversity (CRE) panel and the Enterobacterales Carbapenem Breakpoint (BIT) panel.^81 These panels represent strains with resistance to carbapenems, which are last resort antibiotics: there is an urgent need of new treatments of infections with these strains.
(§5) We tested 6 strains: 4 Enterobacter strains, 1 Kluyvera strain, and 1 Escherichia coli strain.

Kluyvera strain = assay: as above; type: cell-based; details: carbapenem-resistant CRE/BIT panel strain, M63 agar
Description: as §3, §4, §5

[7] = test system: Enterobacter cloacae UCI102; assay: MIC in M63 media (liquid); type: cell-based; details: clinical isolate Enterobacter cloacae UCI102
Procedure: For liquid inhibition assays, 5 mL LB broth was inoculated with 40-50 μL of an overnight culture of E. cloacae or E. amnigenus. […] The plate was shaken at 30° C. at 250 rpm for E. cloacae, and 37° C. at 250 rpm for E. amnigenus. The OD600 was measured at 8-hour and 16-hour increments. The MIC is defined as the lowest concentration of cloacaenodin for which growth (as assessed by the OD600) was inhibited.

[8] = test system: Enterobacter ludwigii MGH216; type: cell-based
Enterobacter cloacae = assay: Microscopy of cells treated with sub-MIC cloacaenodin; type: cell-based; details: sub-MIC cloacaenodin (230 nM), 16 hours in M63 media
Procedure: After a 96-well plate of E. cloacae grew for 16 hours at 30° C. with varying concentrations of cloacaenodin in M63 media, samples were imaged using a Zeiss Observer Z1 automated inverted microscope with a cage incubator kept at 37° C. The microscope was used with a 100× Zeiss chroma objective with oil immersion and 35 ms exposure transmitted light and controlled using SlideBook software. Images were viewed using the software ImageJ.

α-chymotrypsin = target: T1, α-chymotrypsin (Bos taurus, UniProt P00766, DEL14-15/DEL147-148); assay: Protease digestion, chymotrypsin; type: in vitro ADME, bovine; details: 50 μM peptide, 25° C., about 1 hour, LC-MS
T1 construct: purchased Sigma-Aldrich; host or cells: bovine pancreas
Procedure: α-chymotrypsin from bovine pancreas (Sigma-Aldrich) was first resuspended in 1 mM HCl, 2 mM CaCl2). The enzyme was added to 50 μM peptide samples at a final enzyme concentration of about 0.04 mg/mL in a buffer of 100 mM tris(hydroxymethyl)aminomethane (Tris), 10 mM CaCl2, pH 8. The reactions were then allowed to incubate at 25° C. for about 1 hour before quenching with 1% formic acid, and an aliquot was injected onto LC-MS for analysis.

Elastase = target: T2, Elastase (Sus scrofa, UniProt P00772); assay: Protease digestion, elastase; type: in vitro ADME; details: 50 μM peptide, 25° C., about 1 hour, LC-MS
T2 construct: purchased Promega
Procedure: Elastase (Promega) was resuspended in 50 mM Tris pH 9.0. The enzyme was added to 50 μM peptide samples at a final enzyme concentration of about 0.04 mg/mL in a buffer of 50 mM Tris, pH 9. The reactions were then allowed to incubate at 25° C. for about 1 hour before quenching with 1% formic acid. An aliquot was then injected into LC-MS for analysis.

[9] = listed as Threaded cloacaenodin
[10] = listed as threaded cloacaenodin

T2 sequence (P00772 27-266): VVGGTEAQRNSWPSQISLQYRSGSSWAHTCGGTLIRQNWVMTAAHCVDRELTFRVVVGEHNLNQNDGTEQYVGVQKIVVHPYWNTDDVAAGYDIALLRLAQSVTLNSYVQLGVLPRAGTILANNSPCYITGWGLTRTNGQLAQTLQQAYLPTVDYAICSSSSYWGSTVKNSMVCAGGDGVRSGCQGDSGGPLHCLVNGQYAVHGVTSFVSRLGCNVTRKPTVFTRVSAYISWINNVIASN

SMILES: CC[C@H](C)[C@@H]1NC(=O)[C@H](CCCNC(=N)N)NC(=O)[C@H](CC(=O)O)NC(=O)[C@H](C(C)C)NC(=O)[C@H](CO)NC(=O)[C@H](Cc2c[nH]cn2)NC(=O)CNC(=O)CC[C@@H](C(=O)N[C@@H](Cc2ccc(O)cc2)C(=O)N[C@@H](Cc2ccccc2)C(=O)NCC(=O)N2CCC[C@H]2C(=O)N2CCC[C@H]2C(=O)NCC(=O)N[C@@H](CC(C)C)C(=O)N2CCC[C@H]2C(=O)NCC(=O)N2CCC[C@H]2C(=O)N[C@H](C(=O)N[C@@H](CC(C)C)C(=O)N[C@@H](Cc2ccccc2)C(=O)N[C@@H](Cc2ccc(O)cc2)C(=O)N[C@@H](CO)C(=O)O)C(C)C)NC(=O)[C@@H]2CCCN2C1=O [cloacaenodin] (HELM PEPTIDE1{G.H.S.V.D.R.I.P.E.Y.F.G.P.P.G.L.P.G.P.V.L.F.Y.S}$PEPTIDE1,PEPTIDE1,1:R1-9:R3$$$V2.0; C-terminus assumed)
- antimicrobial activity (zones of inhibition) (B. subtilis 168): no observed activity
- strain susceptible to cloacaenodin [1]: * MGH216
- MIC in M63 media [2]: 2 µM (≈ 5.17 µg/mL)
- MIC in M63 media [3]: 2 µM (≈ 5.17 µg/mL)
- strain susceptible to cloacaenodin ([3]; clinical strain UCI193, reliably susceptible in at least three biological replicates): * UCI193
- MIC in M63 media [4]: 0.5 µM (≈ 1.29 µg/mL)
- MIC in M63 media [5]: 1 µM (≈ 2.58 µg/mL)
- MIC in M63 media [6]: 1 µM (≈ 2.58 µg/mL)
- antimicrobial activity (Enterobacter strains): single digit micromolar
- antimicrobial activity (Kluyvera strain): single digit micromolar
- MIC in M63 media [7]: (agar)/230 nM
- MIC in M63 media [8]: 0.23 µM (≈ 0.594 µg/mL)
- filamentation phenotype (Enterobacter cloacae): degree of filamentation; also recorded: filamentation phenotype
- proteolysis by chymotrypsin (α-chymotrypsin; [9]): resistant to chymotrypsin digestion
- proteolysis by chymotrypsin (α-chymotrypsin; [10]): remained resistant to proteolysis
- proteolysis by elastase (Elastase; [9]): resistant to elastase digestion
- proteolysis by elastase (Elastase; [10]): remained resistant to proteolysis
